Experimental data from article PMC7427786, “An essential role of acetyl coenzyme A in the catalytic cycle of insect arylalkylamine N-acetyltransferase” (Communications Biology, 2020).
One block for each molecule: values may come before it.

How the values were obtained:
Format in all cases: binding
[1] = target: T1, Dat (dopamine N-acetyltransferase; Dat21-230) (Drosophila melanogaster, UniProt Q94521); experiment: X-ray crystallography, cocrystal; conditions: substrate pocket
T1 construct: gene speck; truncated Dat residues 21-230 of 240; pGEX-6p3, GST tag cut by PreScission protease; E. coli BL21 (DE3)
T1 sequence (Q94521 56-265): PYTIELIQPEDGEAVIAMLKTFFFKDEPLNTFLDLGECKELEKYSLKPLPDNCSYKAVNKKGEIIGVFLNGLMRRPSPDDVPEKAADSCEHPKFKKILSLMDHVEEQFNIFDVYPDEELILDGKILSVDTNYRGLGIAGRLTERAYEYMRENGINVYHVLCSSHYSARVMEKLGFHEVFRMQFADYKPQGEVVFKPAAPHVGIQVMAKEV

[2] = target: T1, Dat (dopamine N-acetyltransferase; Dat21-230); experiment: isothermal titration calorimetry
Text: isothermal titration calorimetry on Dat (dopamine N-acetyltransferase; Dat21-230)

[3] = target: T1, Dat (dopamine N-acetyltransferase; Dat21-230); experiment: X-ray crystallography (cocrystallization of Dat, Ac-CoA and PEA); NMR HSQC; conditions: ternary complex with CoA; product formed in the crystal

Compound: OCCc1c[nH]c2ccccc12 [tryptophol]
X-ray crystallography, cocrystal ([1]; ternary complex with Ac-CoA, dead-end analog of tryptamine, 1.28 Å): Dat/Ac-CoA/tryptophol (mimicking the enzyme-substrates complex)

Compound: CC(=O)NCCc1c[nH]c2ccccc12 [Ac-TRYP]
X-ray crystallography, cocrystal ([1]; ternary complex with CoA, 1.36 Å): Dat/CoA/Ac-TRYP (representing the enzyme-products complex)

Kd [2]: 153 ± 26.5 µM
Compound: CC(C)(COP(=O)(O)OP(=O)(O)OC[C@H]1O[C@@H](n2cnc3c(N)ncnc32)[C@H](O)[C@@H]1OP(=O)(O)O)[C@@H](O)C(=O)NCCC(=O)NCCS [CoA]

Compound: CC(=O)NCCc1ccccc1 [Ac-PEA]
X-ray crystallography (cocrystallization of Dat, Ac-CoA and PEA); NMR HSQC [3]: crystals of Dat with two products, CoA and Ac-PEA (PDB code: 5GI7)

Kd [2]: 5.51 ± 1.92 µM
Compound: CC(=O)SCCNC(=O)CCNC(=O)[C@H](O)C(C)(C)COP(=O)(O)OP(=O)(O)OC[C@H]1O[C@@H](n2cnc3c(N)ncnc32)[C@H](O)[C@@H]1OP(=O)(O)O [Ac-CoA]
